Laboratory results taken from patent publication US11578080B2, “Thienopyrimidones” (Boehringer Ingelheim International GmbH, priority 2019, dated 2023).

What was measured:
human TRPA1 ion channel = human TRPA1 ion channel (Homo sapiens (Human), UniProt O75762); assay: Assay A: TRPA1 assay (FLIPR calcium, AITC agonism, HEK293 over-expressing human TRPA1); format: cell-based; conditions: HEK293 over-expressing human TRPA1, AITC 10 μM, FLIPRtetra; read-out: hTRPA1 IC50
Procedure: A human HEK293 cell line over-expressing the human TRPA1 ion channel (Perkin Elmer, Product No. AX-004-PCL) was used as a test system for compound efficacy and potency. Compound activity was determined by measuring the effect of compounds on intracellular calcium concentration induced by AITC (Allylisothiocyanat) agonism in a FLIPRtetra system (Molecular Devices).
The cells were obtained as frozen cells in cryo-vials and stored until use at −150° C. Cells were grown in culture medium (MEM/EBSS medium with 10% FCS and 0.4 mg/ML Geneticin). […] For sub-culturing cells were detached from flasks by Versene. At the day before the assay, cells were detached, washed twice with medium (MEM/EBSS medium with 10% FCS) and 20000 cells in 20 μl/well were seeded to Poly D-Lysin biocoated 384-well plates (black, clear bottom, Cat. 356697) from Corning. Plates were incubated for 24 hours at 37° C./5% CO2 before use in the assay.
The test compounds were dissolved in 100% DMSO at a concentration of 10 mM and in a first step diluted in DMSO to a concentration of 5 mM, followed by serial dilution steps in 100% DMSO. Dilution factor and number of dilution steps may vary according to needs. Typically 8 different concentrations by 1:5 dilutions were prepared, further intermediate dilutions (1:20) of the substances were carried out with HBSS/HEPES buffer (1×HEPES, Cat. 14065 from Gibco, 20 mM HEPES, Cat. 83264 from SIGMA, 0.1% BSA Cat. 11926 from Invitrogen, pH 7,4
At the assay day cells were washed 3× with assay puffer, 20 μL buffer remained in the wells after washing. 10 μL Ca6 kit (Cat. R8191 MolecularDevices) loading buffer in HBSS/HEPES was added to the cells and the plates were incubated with lid for 120 minutes at […]. 10 μL of compound or controls in HBSS/HEPES buffer/5% DMSO from the intermediate dilution plate were carefully added to the wells. […] Finally 10 μL of the agonist AITC 50 μM dissolved in HBSS/HEPES buffer/0.05% DMSO (final concentration 10 μM) was added to the wells followed by an additional read on the FLIPRtetra device for 10 minutes. The area under the signal curve (AUC) after AITC addition was used for IC50/% inhibition calculations
Data Evaluation and Calculation:
Each assay microtiter plate contained wells with vehicle (1% DMSO) controls instead of compound as controls for AITC induced luminescence (100% CTL; high controls) and wells with vehicle controls without AITC as controls for non-specific changes in luminescence (0% CTL; low controls).
The analysis of the data was performed by the calculation of the area under signal curve of the individual wells. Based on this values the % value for the measurement of each substance concentration was calculated (AUC(sample)−AUC(low))*100/(AUC(high)−AUC(low)) using MegaLab software (in house development). The IC50 values were calculated from the % control values using MegaLab software. Calculation: [y=(a−d)/(1+(x/c)^b)+d], a=low value, d=high value; x=cone M; c=IC50 M; b=hill; y=% ctrl

[1] = Assay B: Microsomal clearance; format: in vitro ADME, human; conditions: pooled liver microsomes, 1 μM test compound, 37° C.
Procedure: Assay B: Microsomal Clearance:
The metabolic degradation of the test compound is assayed at 37° C. with pooled liver microsomes. The final incubation volume of 100 μl per time point contains TRIS buffer pH 7.6 at RT (0.1 M), magnesium chloride (5 mM), microsomal protein (1 mg/ml) and the test compound at a final concentration of 1 μM.
Following a short preincubation period at 37° C., the reactions are initiated by addition of beta-nicotinamide adenine dinucleotide phosphate, reduced form (NADPH, 1 mM) and terminated by transferring an aliquot into solvent after different time points (0, 5, 15, 30, 60 min). Additionally, the NADPH-independent degradation is monitored in incubations without NADPH, terminated at the last time point. The [%] remaining test compound after NADPH independent incubation is reflected by the parameter c(control) (metabolic stability). The quenched incubations are pelleted by centrifugation (10000 g, 5 min).
An aliquot of the supernatant is assayed by LC-MS/MS for the amount of parent compound. The half-life (t½ INVITRO) is determined by the slope of the semilogarithmic plot of the concentration-time profile.
The intrinsic clearance (CL_[…]) is calculated by considering the amount of protein in the incubation: CL_[…] [μl/min/mg protein]=(Ln 2/(half-life [min]*protein content [mg/ml]))*1000 CL_[…]_INVIVO [ml/min/kg]=(CL_[…] [μL/min/mg protein]×MPPGL [mg protein/g liver]×liver factor [g/kg body weight])/1000 Qh [%]=CL [ml/min/kg]/hepatic blood flow [ml/min/kg])
(§1) Hepatocellularity, human: 120×10e6 cells/g liver
(§2) Liver factor, human: 25.7 g/kg bodyweight
(§3) Blood flow, human: 21 ml/(min×kg)

[2] = Assay C: Hepatocyte clearance; format: in vitro ADME, human; conditions: hepatocyte suspension, 1 μM test compound
Procedure: Assay C: Hepatocyte Clearance
The metabolic degradation of the test compound is assayed in a hepatocyte suspension. Hepatocytes (cryopreserved) are incubated in. Dulbecco's modified eagle medium (supplemented with 3.5 μg glucagon/500 mL, 2.5 mg insulin/500 mL and 3.75 mg/500 mL hydrocortison) containing 5% or 50% species serum.
Following a 30 min preincubation in an incubator (37° C., 10% CO2) 5 μl of test compound solution (80 μM; from 2 mM in DMSO stock solution diluted 1:25 with medium) are added into 395 μl hepatocyte suspension (cell density in the range 0.25-5 Mio cells/mL depending on the species, typically 1 Mio cells/mL; final concentration of test compound 1 μM, final DMSO concentration 0.05%).
The cells are incubated for six hours (incubator, orbital shaker) and samples (25 μl) are taken at 0, 0.5, 1, 2, 4 and 6 hours. Samples are transferred into acetonitrile and pelleted by centrifugation (5 min). The supernatant is transferred to a new 96-deepwell plate, evaporated under nitrogen and resuspended.
Decline of parent compound is analyzed by HPLC-MS/MS
CLint is calculated as follows CL_[…]=Dose/AUC=(C0/CD)/(AUD+clast/k)×1000/60. CO: initial concentration in the incubation [μM], CD: cell density of vital cells [10e6 cells/mL], AUD: area under the data [μM×h], clast: concentration of last data point [μM], k: slope of the regression line for parent decline [h-1].
The calculated in vitro hepatic intrinsic clearance can be scaled up to the intrinsic in vivo hepatic Clearance and used to predict hepatic in vivo blood clearance (CL) by the use of a liver model (well stirred model). CL_[…]_INVIVO [ml/min/kg]=(CL_[…] [μL/min/10e6 cells]×hepatocellularity [10e6 cells/g liver]×liver factor [g/kg body weight])/1000 CL [ml/min/kg]=CL_[…]_INVIVO [ml/min/kg]×hepatic blood flow [ml/min/kg]/(CL_[…]_INVIVO [ml/min/kg]+hepatic blood flow [ml/min/kg]) Qh [%]=CL [ml/min/kg]/hepatic blood flow [ml/min/kg])
as §1, §2, §3

Chain of human TRPA1 ion channel (O75762 whole entry): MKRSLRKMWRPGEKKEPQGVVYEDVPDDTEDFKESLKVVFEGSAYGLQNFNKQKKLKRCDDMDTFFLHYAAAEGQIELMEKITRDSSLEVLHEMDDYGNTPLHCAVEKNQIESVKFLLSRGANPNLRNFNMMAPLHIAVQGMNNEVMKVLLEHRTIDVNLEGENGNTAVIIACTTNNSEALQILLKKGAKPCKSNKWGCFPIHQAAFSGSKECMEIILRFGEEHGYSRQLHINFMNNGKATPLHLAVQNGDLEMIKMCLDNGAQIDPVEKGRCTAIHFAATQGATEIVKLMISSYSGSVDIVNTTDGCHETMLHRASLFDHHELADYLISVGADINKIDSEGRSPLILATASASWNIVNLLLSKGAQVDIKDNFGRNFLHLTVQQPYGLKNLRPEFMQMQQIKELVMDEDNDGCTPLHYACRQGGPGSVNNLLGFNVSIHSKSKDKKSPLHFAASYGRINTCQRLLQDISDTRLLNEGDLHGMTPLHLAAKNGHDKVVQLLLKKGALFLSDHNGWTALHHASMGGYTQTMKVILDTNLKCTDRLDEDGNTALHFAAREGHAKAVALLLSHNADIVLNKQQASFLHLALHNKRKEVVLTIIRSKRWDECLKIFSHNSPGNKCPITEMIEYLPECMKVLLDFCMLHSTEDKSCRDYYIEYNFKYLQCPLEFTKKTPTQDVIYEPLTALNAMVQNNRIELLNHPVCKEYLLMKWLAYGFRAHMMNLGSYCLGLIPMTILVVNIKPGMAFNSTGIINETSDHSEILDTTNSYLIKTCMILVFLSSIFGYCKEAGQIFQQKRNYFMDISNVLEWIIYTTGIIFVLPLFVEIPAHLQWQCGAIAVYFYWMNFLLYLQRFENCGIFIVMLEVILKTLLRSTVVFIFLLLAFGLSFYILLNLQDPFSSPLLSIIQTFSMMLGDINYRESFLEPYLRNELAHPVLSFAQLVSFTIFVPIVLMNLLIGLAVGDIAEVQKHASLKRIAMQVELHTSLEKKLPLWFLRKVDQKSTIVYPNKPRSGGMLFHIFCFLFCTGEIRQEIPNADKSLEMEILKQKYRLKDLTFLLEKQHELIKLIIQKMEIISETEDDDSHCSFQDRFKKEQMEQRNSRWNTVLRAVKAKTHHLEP

| IC50 (human TRPA1 ion channel) | human LM [% Qh] [1] | human Hepatocytes [% Qh] [2] | Compound |
| --- | --- | --- | --- |
| 31 nM | <23 % Qh | 26 % Qh | O=C1NCCc2c1sc1ncn(Cc3nnn(C[C@H](O)c4cc5cc(F)ccc5o4)n3)c(=O)c21 [Example 19] |
| 14 nM | <23 % Qh | 28 % Qh | Cc1ccc([C@@H](O)Cn2nnc(Cn3cnc4sc5c(c4c3=O)CCNC5=O)n2)cc1 [Example 20] |
| 37 nM | <23 % Qh | 17 % Qh | CNC(=O)c1sc2ncn(Cc3nnn(C[C@H](O)c4ccc(Cl)s4)n3)c(=O)c2c1C [Example 16] |
| 6 nM | <23 % Qh | 12 % Qh | NC(=O)c1sc2ncn(Cc3nnn(C[C@H](O)c4ccc(Cl)cc4)n3)c(=O)c2c1Cl [Example 23] |
| 12 nM | <23 % Qh | 13 % Qh | Cc1c(C(N)=O)sc2ncn(Cc3nnn(C[C@H](O)c4ccc(Br)cc4)n3)c(=O)c12 [Example 2] |
| 20 nM | <23 % Qh | 9 % Qh | CNC(=O)c1sc2ncn(Cc3nnn(C[C@H](O)c4ccc(Cl)cc4)n3)c(=O)c2c1C [Example 13] |
| 17 nM | <23 % Qh | 31 % Qh | Cc1c(C(N)=O)sc2ncn(Cc3nnn(C[C@H](O)c4cc5ccc(F)cc5o4)n3)c(=O)c12 [Example 12] |
| 74 nM | <23 % Qh | – | Cc1c(C(N)=O)sc2ncn(Cc3nnn(C[C@H](O)c4ccc(F)c(F)c4)n3)c(=O)c12 [Example 5] |
| 28 nM | <23 % Qh | 14 % Qh | Cc1c(C(N)=O)sc2ncn(Cc3nnn(C[C@H](O)c4ccc5c(c4)OCO5)n3)c(=O)c12 [Example 10] |
| 25 nM | <23 % Qh | 28 % Qh | Cc1c(C(N)=O)sc2ncn(Cc3nnn(C[C@H](O)c4cc5cc(F)ccc5o4)n3)c(=O)c12 [Example 11] |
| 21 nM | <23 % Qh | 16 % Qh | Cc1ccc([C@@H](O)Cn2nnc(Cn3cnc4sc(C(N)=O)c(C)c4c3=O)n2)cc1 [Example 9] |
| 15 nM | 43 % Qh | 36 % Qh | Cc1c(C(N)=O)sc2ncn(Cc3nnn(C[C@H](O)c4cc5ccc(Cl)cc5o4)n3)c(=O)c12 [Example 8] |
| 7 nM | 35 % Qh | 44 % Qh | Cc1c(C(N)=O)sc2ncn(Cc3nnn(C[C@H](O)c4cc5ccccc5s4)n3)c(=O)c12 [Example 22] |
| 76 nM | <23 % Qh | 13 % Qh | CNC(=O)c1sc2ncn(Cc3nnn(C[C@H](O)c4ccc5c(c4)OCO5)n3)c(=O)c2c1C [Example 14] |
| 12 nM | <23 % Qh | 40 % Qh | Cc1c(C(N)=O)sc2ncn(Cc3nnn(C[C@H](O)c4cc5cc(Cl)ccc5o4)n3)c(=O)c12 [Example 3] |
| 16 nM | 36 % Qh | 26 % Qh | CN1CCc2c(sc3ncn(Cc4nnn(C[C@H](O)c5ccc(Cl)cc5)n4)c(=O)c23)C1=O [Example 7] |
| 14 nM | <23 % Qh | 22 % Qh | O=C1NCCc2c1sc1ncn(Cc3nnn(C[C@H](O)c4ccc(Cl)s4)n3)c(=O)c21 [Example 17] |
| 12 nM | <23 % Qh | 7 % Qh | Cc1c(C(N)=O)sc2ncn(Cc3nnn(C[C@H](O)c4ccc(Cl)s4)n3)c(=O)c12 [Example 4] |
| 14 nM | 32 % Qh | 48 % Qh | O=C1NCCc2c1sc1ncn(Cc3nnn(C[C@H](O)c4cc5cc(Cl)ccc5o4)n3)c(=O)c21 [Example 18] |
| 38 nM | <23 % Qh | 18 % Qh | CNC(=O)c1sc2ncn(Cc3nnn(C[C@H](O)c4ccc(C)cc4)n3)c(=O)c2c1C [Example 15] |
| 80 nM | 27 % Qh | 5 % Qh | N#Cc1ccc([C@@H](O)Cn2nnc(Cn3cnc4sc5c(c4c3=O)CCNC5=O)n2)s1 [Example 21] |

| Compound | IC50 (human TRPA1 ion channel) | human LM [% Qh] [1] | human Hepatocytes [% Qh] [2] |
| --- | --- | --- | --- |
| Cc1c(C(N)=O)sc2ncn(Cc3nnn(C[C@H](O)c4ccc(Cl)cc4)n3)c(=O)c12 [Example 1, 3-({2-[(2R)-2-(4-chlorophenyl)-2-hydroxyethyl]-2H-1,2,3,4-tetrazol-5-yl}methyl)-5-methyl-4-oxo-3H,4H-thieno[2,3-d]pyrimidine-6-carboxamide] | 11 nM | <23 % Qh | 12 % Qh |
